Assay results as given in patent publication US10131652B2, “Pyrimidinyloxy benzene derivatives as herbicides” (E. I. DU PONT DE NEMOURS AND COMPANY, priority 2014, dated 2018).

Assays:
Type in all cases: in vivo
[1] = system: Italian ryegrass (Lolium multiflorum); assay: Test B pre-/postemergence plant response
In short: (§1)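 Evaluation is visual, about 10 days after application, rating injury from 0 (none) to 100 (complete control) relative to untreated controls. Application was a preemergence soil spray on seeded pots or a postemergence spray on one- to two-leaf plants.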

[2] = system: barnyardgrass (Echinochloa crus-galli); assay: Test B pre-/postemergence plant response
In short: as §1

corn (Zea mays) = assay: Test B pre-/postemergence plant response
In short: as §1

[3] = system: giant foxtail (Setaria faberii); assay: Test B pre-/postemergence plant response
In short: as §1

kochia (Kochia scoparia) = assay: Test B pre-/postemergence plant response
In short: as §1

[4] = system: pigweed (Amaranthus retroflexus); assay: Test B pre-/postemergence plant response
In short: as §1

[5] = system: ragweed (common ragweed, Ambrosia elatior); assay: Test B pre-/postemergence plant response
In short: as §1

[6] = system: wheat (Triticum aestivum); assay: Test B pre-/postemergence plant response
In short: as §1

[7] = system: blackgrass (Alopecurus myosuroides); assay: Test B postemergence plant response
In short: (§2)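 Values are visual control ratings (0 to 100) recorded approximately 10 days after postemergence application to greenhouse-grown plants of 2 to 10 cm, one- to two-leaf stage, each judged against untreated controls.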

[8] = system: galium (catchweed bedstraw, Galium aparine); assay: Test B postemergence plant response
In short: as §2

[9] = system: barnyardgrass (Echinochloa crus-galli); assay: Test C flooded paddy test plant response; conditions: Flood, 250 g ai/ha; scale of 0 to 100 where 0 is no effect and 100 is complete control; 13 to 15 days
In short: (§3)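 Plants grown to 2-leaf stage, flooded 3 cm above soil; compounds applied directly into paddy water, depth kept throughout. Visual rating versus controls after 13 to 15 days in greenhouse, 0 (no effect) to 100 (complete control).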

[10] = system: ducksalad (Heteranthera limosa); assay: Test C flooded paddy test plant response; conditions: Flood, 250 g ai/ha; scale of 0 to 100 where 0 is no effect and 100 is complete control; 13 to 15 days
In short: as §3

rice (Oryza sativa) = assay: Test C flooded paddy test plant response; conditions: Flood, 250 g ai/ha; scale of 0 to 100 where 0 is no effect and 100 is complete control; 13 to 15 days
In short: as §3

[11] = system: small-flower umbrella sedge (Cyperus difformis); assay: Test C flooded paddy test plant response; conditions: Flood, 250 g ai/ha; scale of 0 to 100 where 0 is no effect and 100 is complete control; 13 to 15 days
In short: as §3

[12] = 31 g ai/ha, Postemergence, 0 to 100 scale, 0 no effect, 100 complete control
[13] = 125 g ai/ha, postemergence, 0 to 100 scale, 0 no effect, 100 complete control
[14] = Preemergence, 31 g ai/ha, 0 to 100 scale (0 no effect, 100 complete control)
[15] = Preemergence, 125 g ai/ha, 0 to 100 scale where 0 is no effect and 100 is complete control
[16] = Postemergence, 1000 g ai/ha, 0 to 100 scale (0 no effect, 100 complete control)
[17] = Preemergence, 1000 g ai/ha, 0 to 100 scale (0 no effect, 100 complete control)
[18] = 31 g ai/ha, Preemergence, 0 to 100 scale where 0 is no effect and 100 is complete control
[19] = Preemergence, 125 g ai/ha, 0 to 100 scale (0 no effect, 100 complete control)
[20] = Postemergence, 31 g ai/ha, 0 to 100 scale (0 no effect, 100 complete control)

Row | Compound | Plant response rating, Ryegrass, Italian [1, 13] | Plant response rating, Barnyardgrass [2, 12] | Plant response rating, Barnyardgrass [2, 13] | Plant response rating, Corn (corn (Zea mays); [12]) | Plant response rating, Corn (corn (Zea mays); [13]) | Plant response rating, Foxtail, Giant [3, 12] | Plant response rating, Foxtail, Giant [3, 13] | Plant response rating, Kochia (kochia (Kochia scoparia); [13]) | Plant response rating, Pigweed [4, 13] | Plant response rating, Ragweed [5, 13] | Plant response rating, Wheat [6, 13] | Plant response rating, Blackgrass [7, 12] | Plant response rating, Blackgrass [7, 13] | Plant response rating, Galium [8, 13] | Barnyardgrass plant response rating [9] | Ducksalad plant response rating [10] | Rice plant response rating (rice (Oryza sativa)) | Sedge, Umbrella plant response rating [11] | Plant response rating, Ryegrass, Italian [1, 18] | Ryegrass, Italian plant response rating [1, 19] | further results
1 | N#Cc1cc(-c2ccccc2Oc2ncc(Cl)cn2)no1 [Compound 38] | 0 | 0 | 0 | 0 | 0 | 0 | 0 | 30 | 20 | 0 | 0 | 0 | 0 | 30 | 0 | 60 | 0 | 0 |  |  | Plant response rating, Ryegrass, Italian [1, 12]: 0; Ryegrass, Italian plant response rating [1, 14]: 0; Plant response rating, Ryegrass, Italian [1, 15]: 0; Barnyardgrass plant response rating [2, 14]: 0; Plant response rating, Barnyardgrass [2, 15]: 0; Foxtail, Giant plant response rating [3, 14]: 0; Plant response rating, Foxtail, Giant [3, 15]: 0; Plant response rating, Kochia (kochia (Kochia scoparia); [12]): 0; Kochia plant response rating (kochia (Kochia scoparia); [14]): 0; Plant response rating, Kochia (kochia (Kochia scoparia); [15]): 0; Plant response rating, Pigweed [4, 12]: 0; Pigweed plant response rating [4, 14]: 0; Plant response rating, Pigweed [4, 15]: 40; Plant response rating, Ragweed [5, 12]: 0; Ragweed plant response rating [5, 14]: 0; Plant response rating, Ragweed [5, 15]: 0; Plant response rating, Wheat [6, 12]: 0; Plant response rating, Galium [8, 12]: 20
2 | Fc1cnc(Oc2ccccc2-c2cc(Cl)sn2)nc1 [Compound 193] |  |  |  |  |  |  |  |  |  |  |  |  |  |  | 0 | 65 | 0 | 0 |  |  | Plant response rating, Ryegrass, Italian [1, 16]: 30; Plant response rating, Ryegrass, Italian [1, 17]: 0; Plant response rating, Barnyardgrass [2, 16]: 90; Plant response rating, Barnyardgrass [2, 17]: 100; Plant response rating, Corn (corn (Zea mays); [16]): 10; Plant response rating, Foxtail, Giant [3, 16]: 90; Plant response rating, Foxtail, Giant [3, 17]: 100; Plant response rating, Kochia (kochia (Kochia scoparia); [16]): 100; Plant response rating, Kochia (kochia (Kochia scoparia); [17]): 100; Plant response rating, Pigweed [4, 16]: 100; Plant response rating, Pigweed [4, 17]: 100; Plant response rating, Ragweed [5, 16]: 90; Plant response rating, Ragweed [5, 17]: 80; Plant response rating, Wheat [6, 16]: 20; Plant response rating, Blackgrass [7, 16]: 90; Plant response rating, Galium [8, 16]: 100
3 | FC(F)Oc1cccc(Oc2ncc(Cl)cn2)c1-c1cc(C(F)F)no1 [Compound 132] | 40 | 20 | 50 | 10 | 30 | 30 | 70 | 60 | 100 | 30 | 10 | 20 | 50 | 90 | 30 | 40 | 20 | 75 | 0 | 30 | Plant response rating, Barnyardgrass [2, 18]: 20; Barnyardgrass plant response rating [2, 19]: 60; Plant response rating, Foxtail, Giant [3, 18]: 60; Foxtail, Giant plant response rating [3, 19]: 90; Plant response rating, Kochia (kochia (Kochia scoparia); [18]): 0; Kochia plant response rating (kochia (Kochia scoparia); [19]): 0; Plant response rating, Pigweed [4, 18]: 90; Pigweed plant response rating [4, 19]: 100; Plant response rating, Ragweed [5, 18]: 0; Ragweed plant response rating [5, 19]: 40
4 | O=Cc1cc(-c2ccccc2Oc2ncc(Cl)cn2)co1 [Compound 140] | 0 | 0 | 0 | 0 | 0 | 0 | 0 | 0 | 0 | 0 | 0 | 0 | 0 | 0 | 0 | 0 | 0 | 0 | 0 | 0 | Plant response rating, Barnyardgrass [2, 18]: 0; Barnyardgrass plant response rating [2, 19]: 0; Plant response rating, Foxtail, Giant [3, 18]: 0; Foxtail, Giant plant response rating [3, 19]: 0; Plant response rating, Kochia (kochia (Kochia scoparia); [18]): 0; Kochia plant response rating (kochia (Kochia scoparia); [19]): 0; Plant response rating, Pigweed [4, 18]: 0; Pigweed plant response rating [4, 19]: 0; Plant response rating, Ragweed [5, 18]: 0; Ragweed plant response rating [5, 19]: 0
5 | N#Cc1ccnc(-c2ccccc2Oc2ncc(Cl)cn2)c1 [Compound 188] | 0 |  | 20 |  | 30 |  | 20 | 90 | 60 | 20 | 20 |  | 20 | 50 | 0 | 30 | 0 | 0 | 0 | 0 | Plant response rating, Ryegrass, Italian [1, 20]: 0; Plant response rating, Barnyardgrass [2, 18]: 0; Plant response rating, Barnyardgrass [2, 20]: 0; Barnyardgrass plant response rating [2, 19]: 20; Plant response rating, Corn (corn (Zea mays); [20]): 0; Plant response rating, Foxtail, Giant [3, 18]: 0; Plant response rating, Foxtail, Giant [3, 20]: 0; Foxtail, Giant plant response rating [3, 19]: 40; Plant response rating, Kochia (kochia (Kochia scoparia); [18]): 0; Plant response rating, Kochia (kochia (Kochia scoparia); [20]): 0; Kochia plant response rating (kochia (Kochia scoparia); [19]): 30; Plant response rating, Pigweed [4, 18]: 0; Plant response rating, Pigweed [4, 20]: 0; Pigweed plant response rating [4, 19]: 100; Plant response rating, Ragweed [5, 18]: 0; Plant response rating, Ragweed [5, 20]: 0; Ragweed plant response rating [5, 19]: 0; Plant response rating, Wheat [6, 20]: 0; Plant response rating, Blackgrass [7, 20]: 0; Plant response rating, Galium [8, 20]: 0
